Data from paper PMC10175918 (Communications Biology, 2023).
Where two headings read alike, the source gives them in different places.

Assays:
Experiment in all cases: TGFα-shedding assay-based GPCR screening with chimeric Gα subunit proteins
Format in all cases: cell-based
[1] = target: T1, 348 GPCRs (Homo sapiens, UniProt Q15722); details: 10µM, Favipiravir 100μM
T1 construct: expressed in transfected cells; host or cells: HEK293A

[2] = target: 348 GPCRs (Homo sapiens, UniProt P46093)
[3] = target: T2, 348 GPCRs (Homo sapiens, UniProt P49238); details: GPCR CX3CR1 (chemokine (C-X3-C motif) receptor 1)
T2 construct: expressed in transfected cells; host or cells: HEK293A
T2 sequence (P49238 1-355): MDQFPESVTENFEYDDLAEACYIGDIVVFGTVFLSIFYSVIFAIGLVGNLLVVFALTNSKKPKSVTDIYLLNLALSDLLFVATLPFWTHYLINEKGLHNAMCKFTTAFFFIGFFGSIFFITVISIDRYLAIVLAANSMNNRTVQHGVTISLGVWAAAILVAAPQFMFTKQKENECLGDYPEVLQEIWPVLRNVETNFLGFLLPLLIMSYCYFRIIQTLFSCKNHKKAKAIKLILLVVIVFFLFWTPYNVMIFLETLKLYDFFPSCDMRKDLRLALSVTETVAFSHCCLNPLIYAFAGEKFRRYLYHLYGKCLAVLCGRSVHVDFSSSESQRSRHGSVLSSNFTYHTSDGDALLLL

[4] = target: T3, 348 GPCRs (Homo sapiens, UniProt Q9NZH0); details: 10µM, Favipiravir 100μM
T3 construct: expressed in transfected cells; host or cells: HEK293A
T3 sequence (Q9NZH0 29-403): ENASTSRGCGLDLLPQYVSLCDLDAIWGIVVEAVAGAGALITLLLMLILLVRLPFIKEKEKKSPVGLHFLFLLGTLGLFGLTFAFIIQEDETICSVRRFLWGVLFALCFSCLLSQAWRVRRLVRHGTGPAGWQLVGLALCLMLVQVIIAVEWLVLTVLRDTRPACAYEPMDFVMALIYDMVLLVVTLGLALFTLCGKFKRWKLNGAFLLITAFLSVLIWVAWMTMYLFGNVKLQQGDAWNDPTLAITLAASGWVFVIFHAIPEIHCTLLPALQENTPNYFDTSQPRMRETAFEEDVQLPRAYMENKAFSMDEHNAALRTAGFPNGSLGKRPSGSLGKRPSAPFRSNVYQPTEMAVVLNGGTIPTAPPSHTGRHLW

[5] = target: T4, 348 GPCRs (Homo sapiens, UniProt Q86SM8); details: 10µM, Favipiravir 100μM
T4 construct: expressed in transfected cells; host or cells: HEK293A
T4 sequence (Q86SM8 whole entry): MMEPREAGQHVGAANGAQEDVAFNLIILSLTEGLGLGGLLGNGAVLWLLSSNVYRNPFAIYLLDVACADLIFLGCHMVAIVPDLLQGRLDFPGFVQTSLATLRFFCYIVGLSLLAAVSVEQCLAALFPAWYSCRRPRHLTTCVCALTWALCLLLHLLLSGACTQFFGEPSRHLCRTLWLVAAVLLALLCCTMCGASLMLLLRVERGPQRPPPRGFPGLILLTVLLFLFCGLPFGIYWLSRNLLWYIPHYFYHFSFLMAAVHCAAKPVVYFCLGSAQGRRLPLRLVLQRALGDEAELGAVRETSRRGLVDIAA

[6] = target: T5, 348 GPCRs (Homo sapiens, UniProt Q9NS66); details: 10µM, Favipiravir 100μM
T5 construct: expressed in transfected cells; host or cells: HEK293A
T5 sequence (Q9NS66 whole entry): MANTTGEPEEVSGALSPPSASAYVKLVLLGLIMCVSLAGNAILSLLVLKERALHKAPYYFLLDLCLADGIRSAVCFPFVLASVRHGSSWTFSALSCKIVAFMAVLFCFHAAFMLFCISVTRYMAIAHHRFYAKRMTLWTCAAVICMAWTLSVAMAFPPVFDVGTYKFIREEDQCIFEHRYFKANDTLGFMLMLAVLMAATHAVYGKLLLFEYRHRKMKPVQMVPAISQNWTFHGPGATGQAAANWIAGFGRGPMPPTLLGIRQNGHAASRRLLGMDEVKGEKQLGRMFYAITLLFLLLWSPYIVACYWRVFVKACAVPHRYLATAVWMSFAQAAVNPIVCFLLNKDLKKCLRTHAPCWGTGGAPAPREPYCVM

[7] = target: 348 GPCRs (Homo sapiens, UniProt P41145); details: read-out: % GPCR activation compared to TPA, OPRK1 (opioid receptor, kappa 1 (KOR)); 10µM, Favipiravir 100μM
Sequence of 348 GPCRs (Homo sapiens, UniProt P41145) (P41145 whole entry): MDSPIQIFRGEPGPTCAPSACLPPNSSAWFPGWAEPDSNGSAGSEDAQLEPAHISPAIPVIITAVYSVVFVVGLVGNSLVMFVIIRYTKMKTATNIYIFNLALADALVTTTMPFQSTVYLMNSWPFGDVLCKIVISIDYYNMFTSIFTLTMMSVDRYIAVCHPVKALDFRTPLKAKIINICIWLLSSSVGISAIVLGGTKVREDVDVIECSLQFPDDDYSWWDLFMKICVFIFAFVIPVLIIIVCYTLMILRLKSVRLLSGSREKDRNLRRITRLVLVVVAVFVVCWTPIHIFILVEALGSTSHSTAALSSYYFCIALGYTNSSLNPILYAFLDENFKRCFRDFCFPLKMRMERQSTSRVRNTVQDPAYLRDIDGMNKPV

[8] = target: T6, 348 GPCRs (Homo sapiens, UniProt Q9UJ42); details: 10µM, Favipiravir 100μM
T6 construct: expressed in transfected cells; host or cells: HEK293A
T6 sequence (Q9UJ42 whole entry): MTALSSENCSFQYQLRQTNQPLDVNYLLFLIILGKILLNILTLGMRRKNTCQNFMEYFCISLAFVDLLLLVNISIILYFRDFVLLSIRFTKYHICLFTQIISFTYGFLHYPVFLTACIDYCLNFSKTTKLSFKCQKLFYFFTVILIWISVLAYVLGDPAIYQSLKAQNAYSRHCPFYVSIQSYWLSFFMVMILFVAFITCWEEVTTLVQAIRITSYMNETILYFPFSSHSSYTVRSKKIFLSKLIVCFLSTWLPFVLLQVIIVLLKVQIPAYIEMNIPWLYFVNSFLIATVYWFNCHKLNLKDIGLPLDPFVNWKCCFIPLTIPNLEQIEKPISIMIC

[9] = target: T7, 348 GPCRs (Homo sapiens, UniProt P35368)
T7 construct: expressed in transfected cells; host or cells: HEK293A
T7 sequence (P35368 1-520): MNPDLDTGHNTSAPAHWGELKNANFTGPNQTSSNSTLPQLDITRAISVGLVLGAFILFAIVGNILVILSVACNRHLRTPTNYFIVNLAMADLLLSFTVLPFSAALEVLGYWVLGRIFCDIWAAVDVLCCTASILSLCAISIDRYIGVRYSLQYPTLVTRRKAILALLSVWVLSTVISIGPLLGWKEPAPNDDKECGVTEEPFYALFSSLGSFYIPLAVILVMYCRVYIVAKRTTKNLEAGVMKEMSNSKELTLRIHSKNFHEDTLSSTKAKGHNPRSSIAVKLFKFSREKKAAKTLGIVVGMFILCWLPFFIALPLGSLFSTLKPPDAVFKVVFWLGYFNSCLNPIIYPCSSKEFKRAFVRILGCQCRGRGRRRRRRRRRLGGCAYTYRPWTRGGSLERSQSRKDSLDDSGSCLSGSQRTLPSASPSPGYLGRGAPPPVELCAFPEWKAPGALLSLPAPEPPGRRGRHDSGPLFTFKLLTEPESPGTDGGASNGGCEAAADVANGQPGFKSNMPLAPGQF

[10] = target: T8, 348 GPCRs (Homo sapiens, UniProt P18825)
T8 construct: expressed in transfected cells; host or cells: HEK293A
T8 sequence (P18825 1-462): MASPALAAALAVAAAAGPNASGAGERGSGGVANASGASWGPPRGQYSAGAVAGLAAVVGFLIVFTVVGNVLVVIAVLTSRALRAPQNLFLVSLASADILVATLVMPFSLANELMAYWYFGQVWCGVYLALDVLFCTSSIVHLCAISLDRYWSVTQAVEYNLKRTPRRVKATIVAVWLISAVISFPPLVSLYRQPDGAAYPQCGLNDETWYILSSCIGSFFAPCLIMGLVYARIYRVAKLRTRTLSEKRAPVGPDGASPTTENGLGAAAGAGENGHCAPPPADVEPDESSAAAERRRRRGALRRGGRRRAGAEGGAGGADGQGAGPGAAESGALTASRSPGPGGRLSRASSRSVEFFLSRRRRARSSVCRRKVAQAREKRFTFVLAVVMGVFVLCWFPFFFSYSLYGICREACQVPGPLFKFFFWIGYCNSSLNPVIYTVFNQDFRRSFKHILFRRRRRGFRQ

[11] = target: T9, 348 GPCRs (Homo sapiens, UniProt P34969); details: 10µM, Favipiravir 100μM
T9 construct: expressed in transfected cells; host or cells: HEK293A
T9 sequence (P34969 whole entry): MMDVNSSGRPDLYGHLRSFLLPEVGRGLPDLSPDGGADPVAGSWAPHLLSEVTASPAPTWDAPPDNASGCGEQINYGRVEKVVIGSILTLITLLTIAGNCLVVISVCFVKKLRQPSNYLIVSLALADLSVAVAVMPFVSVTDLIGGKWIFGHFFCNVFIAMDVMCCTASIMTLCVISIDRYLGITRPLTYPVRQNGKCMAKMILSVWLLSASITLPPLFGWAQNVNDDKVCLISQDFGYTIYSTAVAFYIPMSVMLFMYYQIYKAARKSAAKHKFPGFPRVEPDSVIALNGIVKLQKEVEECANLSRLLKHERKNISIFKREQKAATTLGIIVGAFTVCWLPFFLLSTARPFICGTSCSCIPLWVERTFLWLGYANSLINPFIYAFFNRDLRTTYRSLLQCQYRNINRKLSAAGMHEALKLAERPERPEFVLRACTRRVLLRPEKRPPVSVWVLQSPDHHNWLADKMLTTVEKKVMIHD

[12] = target: T10, 348 GPCRs (Homo sapiens, UniProt Q6U736); details: 10µM, Favipiravir 100μM
T10 construct: expressed in transfected cells; host or cells: HEK293A
T10 sequence (Q6U736 whole entry): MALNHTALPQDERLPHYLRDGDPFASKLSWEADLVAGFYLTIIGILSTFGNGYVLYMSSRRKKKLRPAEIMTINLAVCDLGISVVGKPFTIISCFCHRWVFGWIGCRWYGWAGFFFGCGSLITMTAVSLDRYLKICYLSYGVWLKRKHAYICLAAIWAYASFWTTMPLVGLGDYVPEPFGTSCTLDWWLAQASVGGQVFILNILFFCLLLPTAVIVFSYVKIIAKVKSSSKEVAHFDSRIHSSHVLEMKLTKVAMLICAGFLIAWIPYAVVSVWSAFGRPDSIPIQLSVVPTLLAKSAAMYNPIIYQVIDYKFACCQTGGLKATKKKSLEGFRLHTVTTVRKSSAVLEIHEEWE

[13] = target: T11, 348 GPCRs (Homo sapiens, UniProt P37288)
T11 construct: expressed in transfected cells; host or cells: HEK293A
T11 sequence (P37288 whole entry): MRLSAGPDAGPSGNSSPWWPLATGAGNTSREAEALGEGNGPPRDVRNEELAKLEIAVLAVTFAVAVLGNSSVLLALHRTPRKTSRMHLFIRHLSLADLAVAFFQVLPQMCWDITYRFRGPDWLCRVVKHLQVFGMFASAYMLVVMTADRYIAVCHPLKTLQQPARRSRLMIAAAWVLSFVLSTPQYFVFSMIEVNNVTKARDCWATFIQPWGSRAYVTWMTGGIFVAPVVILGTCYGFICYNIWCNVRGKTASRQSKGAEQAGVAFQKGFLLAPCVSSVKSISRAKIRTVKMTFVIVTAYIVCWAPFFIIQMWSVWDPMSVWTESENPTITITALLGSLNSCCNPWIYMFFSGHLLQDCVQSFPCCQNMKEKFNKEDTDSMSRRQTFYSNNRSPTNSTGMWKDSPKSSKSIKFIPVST

[14] = target: T12, 348 GPCRs (Homo sapiens, UniProt Q8NFJ6); details: 10µM, Favipiravir 100μM
T12 construct: expressed in transfected cells; host or cells: HEK293A
T12 sequence (Q8NFJ6 whole entry): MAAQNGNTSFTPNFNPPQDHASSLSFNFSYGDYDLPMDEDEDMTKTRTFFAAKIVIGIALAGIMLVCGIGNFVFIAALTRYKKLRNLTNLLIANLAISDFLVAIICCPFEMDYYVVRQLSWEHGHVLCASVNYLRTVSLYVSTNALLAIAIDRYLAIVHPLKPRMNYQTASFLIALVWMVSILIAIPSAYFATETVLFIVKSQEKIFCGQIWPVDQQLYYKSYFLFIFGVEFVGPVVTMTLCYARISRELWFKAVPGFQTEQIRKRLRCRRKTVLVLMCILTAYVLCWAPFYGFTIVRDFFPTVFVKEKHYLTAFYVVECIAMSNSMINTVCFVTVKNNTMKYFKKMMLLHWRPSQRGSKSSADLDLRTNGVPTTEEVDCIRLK

[15] = read-out: % GPCR activation compared to TPA, LTB4R (leukotriene B4 receptor)
[16] = read-out: % GPCR activation compared to TPA, GPCR GPR4 (G Protein-Coupled Receptor 4)
[17] = read-out: % GPCR activation compared to TPA, GPRC5B (G protein-coupled receptor class C group 5 member B)
[18] = read-out: % GPCR activation compared to TPA, MRGE (MAS-related GPR, member E)
[19] = read-out: % GPCR activation compared to TPA, MRGPRE (MAS-related GPR, member E)
[20] = read-out: % GPCR activation compared to TPA, GPR173 (G protein-coupled receptor 173)
[21] = read-out: % GPCR activation compared to TPA, GPR160 (G Protein-Coupled Receptor 160)
[22] = read-out: % GPCR activation compared to TPA, GPCR α1B (adrenoceptor alpha 1B)
[23] = read-out: % GPCR activation compared to TPA, GPCR α2C (adrenoceptor alpha 2C)
[24] = read-out: % GPCR activation compared to TPA, 5-HT7 (5-hydroxytryptamine receptor 7)
[25] = read-out: % GPCR activation compared to TPA, OPN5 (opsin 5)
[26] = read-out: % GPCR activation compared to TPA, GPCR V1A (arginine vasopressin receptor 1A)
[27] = read-out: % GPCR activation compared to TPA, PK2 (prokineticin receptor 2)
[28] = read-out: % GPCR activation compared to TPA, PROKR2 (prokineticin receptor 2)
[29] = LTB4R (leukotriene B4 receptor), read-out: % GPCR activation compared to TPA
[30] = GPCR GPR4 (G Protein-Coupled Receptor 4), read-out: % GPCR activation compared to TPA
[31] = GPRC5B (G protein-coupled receptor class C group 5 member B), read-out: % GPCR activation compared to TPA
[32] = MRGE (MAS-related GPR, member E), read-out: % GPCR activation compared to TPA
[33] = MRGPRE (MAS-related GPR, member E), read-out: % GPCR activation compared to TPA
[34] = GPR173 (G protein-coupled receptor 173), read-out: % GPCR activation compared to TPA
[35] = GPR160 (G Protein-Coupled Receptor 160), read-out: % GPCR activation compared to TPA
[36] = GPCR α1B (adrenoceptor alpha 1B), read-out: % GPCR activation compared to TPA
[37] = GPCR α2C (adrenoceptor alpha 2C), read-out: % GPCR activation compared to TPA
[38] = 5-HT7 (5-hydroxytryptamine receptor 7), read-out: % GPCR activation compared to TPA
[39] = OPN5 (opsin 5), read-out: % GPCR activation compared to TPA
[40] = GPCR V1A (arginine vasopressin receptor 1A), read-out: % GPCR activation compared to TPA
[41] = PK2 (prokineticin receptor 2), read-out: % GPCR activation compared to TPA
[42] = PROKR2 (prokineticin receptor 2), read-out: % GPCR activation compared to TPA

Sequence of 348 GPCRs (Homo sapiens, UniProt P46093) (P46093 whole entry): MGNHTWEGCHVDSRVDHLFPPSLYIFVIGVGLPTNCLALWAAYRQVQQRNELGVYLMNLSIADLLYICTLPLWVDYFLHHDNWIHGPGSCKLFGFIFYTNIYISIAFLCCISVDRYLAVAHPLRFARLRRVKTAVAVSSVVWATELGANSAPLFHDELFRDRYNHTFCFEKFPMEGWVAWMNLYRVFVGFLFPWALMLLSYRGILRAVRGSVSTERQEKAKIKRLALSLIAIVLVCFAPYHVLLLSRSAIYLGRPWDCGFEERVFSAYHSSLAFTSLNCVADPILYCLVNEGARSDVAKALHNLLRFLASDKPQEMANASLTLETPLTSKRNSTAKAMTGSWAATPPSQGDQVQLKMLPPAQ
T1 sequence (Q15722 whole entry): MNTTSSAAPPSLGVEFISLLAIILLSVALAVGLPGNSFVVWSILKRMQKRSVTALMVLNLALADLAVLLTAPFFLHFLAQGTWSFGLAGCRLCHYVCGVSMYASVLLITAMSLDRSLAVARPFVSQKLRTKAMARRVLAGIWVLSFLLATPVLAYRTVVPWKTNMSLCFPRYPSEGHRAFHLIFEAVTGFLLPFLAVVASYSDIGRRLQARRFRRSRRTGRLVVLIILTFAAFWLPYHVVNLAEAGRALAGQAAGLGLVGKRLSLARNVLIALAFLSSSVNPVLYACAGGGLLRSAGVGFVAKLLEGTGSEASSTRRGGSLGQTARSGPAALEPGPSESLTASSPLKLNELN

Row | Structure (SMILES) | activation at 10 µM [1, 15] [%] | activation at 10 µM [2, 16] [%] | % GPCR activation compared to TPA ([3]; 10µM) [%] | activation at 100 µM [4, 17] [%] | activation at 100 µM [5, 18] [%] | activation at 100 µM [5, 19] [%] | activation at 10 µM [6, 20] [%] | activation at 100 µM [7] [%] | activation at 10 µM [8, 21] [%] | activation at 10 µM [9, 22] [%] | activation at 10 µM [1, 29] [%] | activation at 100 µM [4, 31] [%] | activation at 100 µM [5, 32] [%] | activation at 100 µM [5, 33] [%] | activation at 10 µM [6, 34] [%] | activation at 10 µM [8, 35] [%] | activation at 100 µM [11, 38] [%] | activation at 100 µM [12, 39] [%] | activation at 10 µM [14, 41] [%] | activation at 100 µM [14, 42] [%] | other results
1 | CC(C)OC(=O)[C@H](C)N[P@](=O)(OC[C@H]1O[C@@H](n2ccc(=O)[nH]c2=O)[C@](C)(F)[C@@H]1O)Oc1ccccc1 [sofosbuvir] | 0.62 | 1.94 | 0.2471 | -12.5 | -1.05 | 0.355 | -0.581 | -1.11 | 2.1 | 0.342 | – | – | – | – | – | – | – | – | – | – | activation at 10 µM [10, 23]: -4.42%; activation at 100 µM [11, 24]: -1.41%; activation at 100 µM [12, 25]: -0.631%; activation at 10 µM [13, 26]: -0.512%; activation at 10 µM [14, 27]: -0.621%; activation at 100 µM [14, 28]: -2.61%
2 | CC(C)C(=O)OC[C@H]1O[C@@H](n2ccc(NO)nc2=O)[C@H](O)[C@@H]1O [molnupiravir] | – | – | -0.5795 | – | – | – | – | -1.39 | – | – | -0.697 | -3.43 | -1.17 | -1.32 | -4.49 | 0.0934 | -0.625 | -2.56 | -5.79 | -1.79 | activation at 10 µM [2, 30]: -3.97%; activation at 10 µM [9, 36]: 0.493%; activation at 10 µM [10, 37]: -6.27%; activation at 10 µM [13, 40]: 0.0613%
3 | NC(=O)c1nc(F)cnc1O [favipiravir, 6-fluoro-3-hydroxy-2-pyrazinecarboxamide] | – | – | – | – | – | – | – | -1.65 | – | – | -0.299 | 7.41 | -2.09 | -1.34 | 0.0591 | -0.794 | 0.723 | -1.8 | -4.29 | 0.524 | activation at 100 µM ([2]; GPCR GPR4 (G Protein-Coupled Receptor 4), 100μM, read-out: % GPCR activation compared to TPA): -3.16%; % GPCR activation compared to TPA ([3]; 100μM): 0.06344%; activation at 100 µM ([9]; GPCR α1B (adrenoceptor alpha 1B), 100μM, read-out: % GPCR activation compared to TPA): -1.61%; activation at 100 µM ([10]; GPCR α2C (adrenoceptor alpha 2C), 100μM, read-out: % GPCR activation compared to TPA): 7%; activation at 100 µM ([13]; GPCR V1A (arginine vasopressin receptor 1A), 100μM, read-out: % GPCR activation compared to TPA): 0.923%
4 | N#C[C@@]1(c2ccc3c(N)ncnn23)O[C@H](CO)[C@@H](O)[C@H]1O [GS441524] | – | – | -0.5209 | – | – | – | – | -1.93 | – | – | 0.849 | 4.38 | -0.92 | -0.879 | 0.119 | 0.113 | 1.1 | -1.77 | -2.39 | -1.59 | activation at 10 µM [2, 30]: -0.661%; activation at 10 µM [9, 36]: -1.17%; activation at 10 µM [10, 37]: 2.32%; activation at 10 µM [13, 40]: -0.48%
5 | CCC(CC)COC(=O)[C@H](C)N[P@](=O)(OC[C@H]1O[C@@](C#N)(c2ccc3c(N)ncnn23)[C@H](O)[C@@H]1O)Oc1ccccc1 [remdesivir] | -0.224 | -1.37 | 2.076 | 6.88 | -2.75 | -1.08 | 1.49 | 6.17 | 0.13 | -0.0202 | – | – | – | – | – | – | – | – | – | – | activation at 10 µM [10, 23]: 15.6%; activation at 100 µM [11, 24]: 1.8%; activation at 100 µM [12, 25]: -2.25%; activation at 10 µM [13, 26]: 0.24%; activation at 10 µM [14, 27]: -3.23%; activation at 100 µM [14, 28]: 0.417%
